Test results: US11203582B2, “Benzamide derivatives for inhibiting endoplasmic reticulum (ER) stress” (The Board of Regents of the University of Oklahoma, priority 2017, dated 2021)

Columns and labels:
[1] = test system: CHOP mRNA; test: qRT-PCR of CHOP mRNA in INS-1 cells; type: cell-based, rat
Procedure: (A, B) INS-1 cells were treated with or without Tm (0.1 μg/mL) in the presence of 13d or DMSO for 8 h. ATF4 (A) and CHOP (B) mRNA levels were analyzed by qRT-PCR. Relative mRNA levels were normalized against the housekeeping gene Cyclophilin A using the comparative CT method. The results were expressed as the fold-increase over mRNA levels in untreated control cells and are the means of 3 replicate wells and representative of 3 independent experiments. ** P<0.01 compared with Tm treatment alone. Bar indicates SD. (C-E) INS-1 cells were treated with or without Tm (0.1 μg/mL) in the presence of 13d or DMSO for 8 hATF4 and CHOP protein levels were determined by Western blotting (C). α-Tubulin was used as an internal control. Quantification of ATF4 (D) and CHOP (E) protein levels was analyzed by ImageJ program, which was normalized by α-Tubulin protein level. The data shown are representative of 3 independent experiments.
Having established that compound 13d restores ER stress-impaired β-cell survival and function, we next investigated the mechanism of action by which 13d protects β-cells against ER stress. Chronic or severe ER stress activates all three branches of the UPR, PERK, IRE1α, and ATF6, leading to eventual cell death. First, we determined the effect of 13d on the activation of the PERK pathway in β-cells under ER stress. PERK activation phosphorylates eukaryotic translation initiator factor 2α (eIF2α), which in turn allows for the up-regulation of activating transcription factor 4 (ATF4) and of the pro-apoptotic gene C/EBP-homologous protein (CHOP). Thus, we used ATF4 and CHOP expression levels as markers of PERK pathway activation. […]
(§1) INS-1 cells were seeded at 4×10^5 cells/well in 6-well plates and treated with compounds for the indicated times. […] Relative mRNA levels were normalized against the housekeeping gene Cyclophilin A and were determined by ΔΔCt calculated from the difference in ΔCt values between the target gene and Cyclophilin A with and without treatment, based on comparative CT (cycle threshold) method. […]

[2] = test system: Bip mRNA; test: qRT-PCR of Bip mRNA in Tm-treated INS-1 cells; type: cell-based, rat; details: Tm 0.1 μg/mL co-treatment, 8 h
Procedure: (§2) INS-1 cells were treated with or without Tm (0.1 μg/mL) in the presence of 13d or DMSO for 8 h. Bip (A) and GRP94 (B) mRNA levels were analyzed by qRT-PCR. Relative mRNA levels were normalized against the housekeeping gene Cyclophilin A using the comparative CT method. The results are the means of 3 replicate wells and representative of 3 independent experiments. ** P<0.01 compared with Tm treatment alone. Error bars indicate SD.
(§3) We then investigated the effects of 13d on the activation of ATF6 in β-cells under ER stress. Activated ATF6 acts as a homodimer or as an ATF6-XBP1s heterodimer to control the up-regulation of select UPR target genes including the chaperone proteins BiP and GRP94. Therefore, these two chaperone proteins were evaluated in the INS-1 cells in the presence of Tm.
as §1, with “times. Total RNA was extracted using TRIzol reagent (Invitrogen, Carlsbad, Calif.) according to the manufacturer's protocol, and 2 μg of total RNA was reverse transcribed using a Superscript kit (Invitrogen).” for “times.”

[3] = test system: GRP94 mRNA; test: qRT-PCR of GRP94 mRNA in Tm-treated INS-1 cells; type: cell-based, rat; details: Tm 0.1 μg/mL co-treatment, 8 h
Procedure: as §2, §3
as §1, with “times. Total RNA was extracted using TRIzol reagent (Invitrogen, Carlsbad, Calif.) according to the manufacturer's protocol, and 2 μg of total RNA was reverse transcribed using a Superscript kit (Invitrogen).” for “times.”

[4] = test system: STZ-induced diabetic mouse model; test: Streptozotocin (STZ)-induced diabetic mouse model; type: in vivo, C57BL/6 mice
Procedure: (A) Fasting blood glucose levels were measured in STZ-injected mice treated with vehicle control (n=6) or 13d (n=7). C57BL/6J mice were injected intraperitoneally once daily for 5 days with STZ (50 mg/kg body weight) and with either vehicle (n=6 mice) or 13d (5 mg/kg body weight; n=7 mice). Injections of vehicle or 13d alone were then continued for 2 more weeks. (B) Glucose tolerance test. Blood glucose levels measured at indicated time points after intraperitoneal injection of glucose (2 g/kg body weight). (C) Pancreases were sectioned and slides were stained with anti-insulin antibody (green, β-cell marker), anti-glucagon antibody (red, α-cell marker), and DAPI (blue). Slides were imaged with an Olympus FV1000 confocal microscope. Representative images are shown in (C). (D) Quantification of total islet area per section and β-cell number per islet. Total area of all islets per section calculated for a total of six sections using insulin-positive cells to demarcate islets. Data are the means±SEM of six sections from three mice. *p<0.05 **p<0.01, and ***p<0.001 by Student's t-test.
We next evaluated the in vivo efficacy of 13d using a streptozotocin (STZ)-induced diabetic mouse model. STZ induces ER stress in β-cells in addition to the increase in reactive oxygen species (ROS) production and DNA alkylation. C57BL/6 mice injected intraperitoneally with low dose STZ (50 mg/kg) once daily for 5 consecutive days develop diabetes; blood glucose levels increased gradually within a week of STZ treatment.
All procedures involving animals were performed in accordance with the protocol approved by the University of Oklahoma Health Science Center Institutional Animal Care and Use Committee (IACUC). C57BL/6 mice were obtained from The Jackson Laboratory (Bar Harbor, Me.) and maintained on a 12 h light (6:00 AM-6:00 PM)-12 h dark (6:00 PM-6:00 AM) cycle at an ambient temperature of 21° C. Mice were given free access to water and food. All experiments were performed with age-matched male mice. Compounds were dosed during light cycle. For streptozotocin (STZ)-induced diabetic model, ten-week-old C57BL/6 mice were injected intraperitoneally (i.p.) once daily for five days with STZ (dissolved in Na-Citrate Buffer; 50 mg/kg) and either 13d (5 mg/kg body weight; 2 mg/ml in 10% DMSO in saline buffer; n=7 mice) or vehicle (n=6 mice). Injections of vehicle or 13d alone were then continued for 2 more weeks. Every third day, animals were fasted for 5 h and blood was obtained by tail snip. Blood glucose levels were measured using a glucometer (Nova Statstrip Xpress; Data Science International, St. Paul, Minn.). At the end of the treatment period, mice were sacrificed and the pancreases were removed, fixed in formalin, and paraffin-embedded. Tissue blocks were serially sectioned at intervals of 100 μm and 6 sections were stained with an anti-insulin antibody (A0564, 1:500 dilution; Dako), anti-glucagon antibody (G2654, 1:500 dilution; Sigma), and DAPI (0.5 μg/ml). Insulin-positive cells were used to demarcate islets, and the total islet area was measured with an Olympus FV1000 confocal microscopy and quantified with Image-J histogram software.

## O=C(NCc1ccc(C(F)(F)F)cc1)c1cccc(CN2CCCCC2)c1 [Compound 13d, N-(4-trifluoromethylphenmethyl)-3-(N-piperidinyl)methyl benzamide]
[1]; Tm 0.1 μg/mL co-treatment, 8 h
  Tm-induced increase in CHOP mRNA level: almost completely abolished
[1]; Tm, 8 h, read-out: IC50 for inhibition of Tm-induced CHOP expression
  IC50: 37 nM
[1]; without Tm
  effect on CHOP mRNA level on its own: no effect
[2]
  Tm-induced up-regulation of Bip mRNA: almost completely reversed
[3]
  Tm-induced up-regulation of GRP94 mRNA: almost completely reversed
[4]; STZ mice, 5 mg/kg
  total pancreatic islet β-cell area compared to vehicle-treated mice: more than double
[4]; STZ mice, 5 mg/kg i.p. once daily, after 3 weeks of treatment
  fasting blood glucose level: 314 mg/dL
[4]; STZ mice, 5 mg/kg, pancreatic sections at end of treatment
  total pancreatic islet β-cell area: 67.4±5.9%
[4]; STZ mice, 5 mg/kg, vehicle vs 13d groups
  average number of α-cells: no obvious effect
[4]; overnight fasted STZ mice, 5 mg/kg, glucose 2 g/kg i.p.
  intraperitoneal glucose tolerance test, blood glucose vs vehicle-treated STZ group: lower blood glucose levels at 15, and 30 min
